# Measured values taken from patent US7342004B2, “Thioether sulphamate steroids as steroid inhibitors and anti-cancer compounds” (Sterix Ltd., priority 2000, dated 2008).
# How the values were obtained:
# uterus = conditions: rat, in vivo; cited from earlier work
# CuZnSOD = CuZnSOD (UniProt P00442); assay: Superoxide dismutase (SOD) spectrophotometric XTT assay, Protocol 1; format: biochemical; conditions: xanthine oxidase/XTT, 24° C., 30 minutes, read-out: IC 50/μM (+/− SEM) SOD Inhibition
# steroid sulphatase = target: T1, steroid sulphatase (Homo sapiens, UniProt P08842); conditions: cited from earlier work
# T1 sequence (P08842 22-583): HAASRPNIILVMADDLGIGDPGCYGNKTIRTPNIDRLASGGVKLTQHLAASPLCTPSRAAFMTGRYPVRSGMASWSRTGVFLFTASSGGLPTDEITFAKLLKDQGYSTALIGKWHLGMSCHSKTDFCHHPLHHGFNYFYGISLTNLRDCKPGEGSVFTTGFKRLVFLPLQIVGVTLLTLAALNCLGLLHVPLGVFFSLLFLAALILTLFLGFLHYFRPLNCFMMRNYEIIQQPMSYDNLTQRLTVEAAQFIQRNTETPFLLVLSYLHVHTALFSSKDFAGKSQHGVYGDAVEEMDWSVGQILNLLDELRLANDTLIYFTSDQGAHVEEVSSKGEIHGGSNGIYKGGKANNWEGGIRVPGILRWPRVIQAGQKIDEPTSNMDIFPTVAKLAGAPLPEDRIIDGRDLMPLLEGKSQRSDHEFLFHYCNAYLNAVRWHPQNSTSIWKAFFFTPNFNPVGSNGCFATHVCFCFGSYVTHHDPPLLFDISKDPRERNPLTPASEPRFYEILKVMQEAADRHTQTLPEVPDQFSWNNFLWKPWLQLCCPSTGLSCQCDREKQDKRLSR
# [1] = tested on: MCF7, CAL51, CAMA1 and ZR-75-1 breast cancer derived cell lines; assay: Cell cycle and apoptosis analysis in breast cancer cell lines; format: cell-based, human
# Method: MCF7, CAL51, CAMA1 and ZR-75-1 breast cancer derived cell lines were obtained from ATCC (MCF7, CAMA1, ZR-75-1) or from the Dutrillaux laboratory (CAL51) (22) and maintained in Dulbecco's modified Eagle's medium (DMEM) supplemented with 10% (v/v) fetal calf serum and antibiotics.
# DNA content was determined by flow cytometric analysis of propidium iodide stained cells and TdT-mediated dUTP-nick end labelling (TUNEL), respectively, as described (20). The proportion of cells in G2/M phase of the cell cycle was calculated as a proportion of cells with […] DNA content. The proportion of cells with <G1 DNA content was calculated as a percentage of total cells.
# To determine the proportion of cells in mitosis, drug treated cells were collected by trypsinisation and cytospins prepared. Cells were fixed in ice cold methanol for 5 minutes, air dried and DNA was stained using propidium iodide (PI) (0.1 mg/ml in phosphate buffered saline (PBS) containing 10% (v/v) newborn calf serum and 0.05% (w/v) sodium azide). Cells were analysed by confocal microscopy using a Zeiss Axiovert 100 M microscope equipped with the LSM 510 confocal system (Zeiss, Jena, Germany).
# We examined whether the differential sensitivity of breast cancer cell lines to the growth inhibitory effects of the compounds of the present invention.
# STS = assay: Plate assay, % inhibition; format: biochemical
# Method: (§1) The STS inhibition provided by the compounds was determined in accordance with the placental microsomes assay of Protocol 4 and a plate assay.
# steroid sulphatase (STS) = target: T2, steroid sulphatase (STS) (Homo sapiens, UniProt P08842); assay: Inhibition of steroid sulphatase activity in placental microsomes, Protocol 4; format: biochemical
# T2 sequence (P08842 22-583): T1 sequence (P08842 22-583)
# Method: Sulphatase-positive human placenta from normal term pregnancies are thoroughly minced with scissors and washed once with cold phosphate buffer (pH 7.4, 50 mM) then resuspended in cold phosphate buffer (5 ml/g tissue). Homogenisation is accomplished with an Ultra-Turrax homogeniser, using three 10 second bursts separated by 2 minute cooling periods in ice. Nuclei and cell debris are removed by centrifuging (4° C.) at 2000 g for 30 minutes and portions (2 ml) of the supernatant are stored at […] The protein concentration of the supernatants is determined by the method of Bradford (Anal. Biochem., 72, 248-254 (1976)).
# Incubations (1 ml) are carried out using a protein concentration of […], substrate concentration of […] [6,7-3H]oestrone-3-sulphate (specific activity 60 Ci/mmol from New England Nuclear, Boston, Mass., U.S.A.) and an incubation time of 20 minutes at 37° C. If necessary eight concentrations of compounds are employed: 0 (i.e. control); 0.05 mM; 0.1 mM; 0.2 mM; 0.4 mM; 0.6 mM; 0.8 mM; 1.0 mM. After incubation each sample is cooled and the medium (1 ml) was pipetted into separate tubes containing [14C]oestrone (7×10^3 dpm) (specific activity 97 Ci/mmol from Amersham International Radiochemical Centre, Amersham, U.K.). The mixture is shaken thoroughly for 30 seconds with toluene (5 ml). Experiments have shown that >90% [14C]oestrone and <0.1% [3H]oestrone-3-sulphate is removed from the aqueous phase by this treatment. A portion (2 ml) of the organic phase was removed, evaporated and the 3H and 14C content of the residue determined by scintillation spectrometry. The mass of oestrone-3-sulphate hydrolysed is calculated from the 3H counts obtained (corrected for the volumes of the medium and organic phase used, and for recovery of [14C]oestrone added) and the specific activity of the substrate.
# as §1
IC50 (CuZnSOD) [µM],Structure (SMILES),oestrogenicity (uterus),potency as a steroid sulphatase inhibitor compared with EMATE (steroid sulphatase),"Effect on cell morphology (rounding, detachment) [1]","Plate Assay, % inhibition 0.1 μM (STS; 0.1 μM) [%]","Plate Assay, % inhibition 1 μM (STS; 1 μM) [%]","Plate Assay, % inhibition 10 μM (STS; 10 μM) [%]",IC50 (steroid sulphatase (STS); placental microsomes) [nM],"inhibition at 1 µM (steroid sulphatase (STS); read-out: Placental Microsomes, % inhibition 1 μM) [%]"
> 100,"COc1cc2c(cc1OS(N)(=O)=O)CC[C@@H]1[C@@H]2CC[C@]2(C)C(=O)CC[C@@H]12 [Compound 25, 2-methoxyestrone-3-O-sulphamate]",devoid of oestrogenicity,equipotent with EMATE,–,–,–,–,–,–
–,CSc1cc2c(cc1OS(N)(=O)=O)CCC1C2CC[C@]2(C)C(=O)CCC12 (stereo partly drawn) [Compound 36],–,–,induced cells to become rounded and detached from the plate/flask,3,53,55,120,86.9
